Test systems include HCC-2998 colon; HOP-92 NSCLC; LOX IMVI melanoma; MDA-MB-231 breast; MOLT-4 leukemia; NCI-H522 lung; NCI/ADR-RES ovarian; SK-MEL-28 melanoma; SN12C renal; U251 CNS.
Holding throughout (test): NCI-60 cell line screen, 48 h

Several values for one entry are separate records, joined by “and”; a condition that tells them apart may be missing. Equal values may be shown once.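 Exposure lasted 48 hours, with cells grown in 96-well plates and compounds tested at five concentrations. Here, GI50 denotes the concentration required for 50% inhibition of growth. TGI denotes the concentration required for complete inhibition of growth.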

With `N=c1oc2ccccc2cc1-c1nc2ccccc2c(=O)[nH]1`, the TGI was over 100 µM in the test on HCC-2998 colon; 66.1 µM in the test on HOP-92 NSCLC; over 100 µM with LOX IMVI melanoma; over 100 µM with MDA-MB-231 breast; over 100 µM with MOLT-4 leukemia; over 100 µM in the test on NCI-H522 lung. Besides, the TGI in the test on NCI/ADR-RES ovarian, in the test on SK-MEL-28 melanoma, in the test with SN12C renal and in the test with U251 CNS was over 100 µM each time.
Take `COC1(c2cccs2)c2ccccc2C(OC)(c2cccs2)c2ccccc21` (centres undefined): the TGI in the test with HCC-2998 colon, in the test with HOP-92 NSCLC, in the test on LOX IMVI melanoma, in the test on MDA-MB-231 breast, in the test on MOLT-4 leukemia and with NCI-H522 lung was over 100 µM in each case. The TGI with NCI/ADR-RES ovarian, in the test on SK-MEL-28 melanoma, in the test on SN12C renal and in the test on U251 CNS was over 100 µM in each case.
Consider `CC(=O)N(C(C)=O)n1c(Cc2ccc(C)cc2)nn(C(C)=O)c1=O`, for which the TGI in the test on HCC-2998 colon, with HOP-92 NSCLC, with LOX IMVI melanoma, in the test on MDA-MB-231 breast, in the test with MOLT-4 leukemia and in the test with NCI-H522 lung was over 100 µM in each case. Also, the TGI in the test on NCI/ADR-RES ovarian, with SK-MEL-28 melanoma, in the test with SN12C renal and in the test on U251 CNS was over 100 µM in each case.
As to `Cc1cc(N(CCC#N)CCC#N)ccc1/C=C1\SC(=S)NC1=O`, the TGI in the test with HCC-2998 colon, with HOP-92 NSCLC, in the test on LOX IMVI melanoma, with MDA-MB-231 breast, in the test with MOLT-4 leukemia and in the test on NCI-H522 lung was over 100 µM throughout. Besides, the TGI with NCI/ADR-RES ovarian, with SK-MEL-28 melanoma, in the test with SN12C renal and in the test on U251 CNS was over 100 µM in each case.
Take `COP(=O)(O)C(N)Cc1c[nH]c2ccccc12` (centres undefined): the TGI in the test with HCC-2998 colon, with HOP-92 NSCLC, with LOX IMVI melanoma, in the test with MDA-MB-231 breast, with MOLT-4 leukemia and in the test with NCI-H522 lung was over 100 µM in each case. The TGI in the test with NCI/ADR-RES ovarian, in the test on SK-MEL-28 melanoma, in the test with SN12C renal and in the test with U251 CNS was over 100 µM each time.
On to `CN(C)CC1CCC/C(=C\c2ccc(OC(=O)/C=C/c3ccc(Cl)c(Cl)c3)cc2)C1=O` (centres undefined), for which the TGI stood at 10.1 µM in the test with HCC-2998 colon; 4.27 µM with HOP-92 NSCLC; 4.01 µM with LOX IMVI melanoma; 11.9 µM in the test on MDA-MB-231 breast; 4.13 µM with MOLT-4 leukemia; 8.28 µM with NCI-H522 lung. Besides, the TGI in the test on NCI/ADR-RES ovarian worked out at 18.5 µM; in the test with SK-MEL-28 melanoma it was 28.1 µM; with SN12C renal it was 5.64 µM; in the test with U251 CNS, 27.9 µM.
Turning to `O=C1CS(=O)(=O)C(c2cccc(Oc3ccccc3)c2)N1c1ccccc1` (centres undefined), the TGI is 35 µM with HCC-2998 colon; 32.8 µM with HOP-92 NSCLC; 32.7 µM in the test with LOX IMVI melanoma; 62.6 µM with MDA-MB-231 breast; 65.7 µM in the test with MOLT-4 leukemia; 47.9 µM in the test on NCI-H522 lung. Also, the TGI with NCI/ADR-RES ovarian was determined as 83 µM; in the test on SK-MEL-28 melanoma, 85.4 µM; in the test with SN12C renal it was 39.7 µM; with U251 CNS, 33.3 µM.
Regarding `COC(=O)NC(Cc1ccccc1)NC(C)=O` (centres undefined), the TGI in the test with HCC-2998 colon, in the test with HOP-92 NSCLC, in the test with LOX IMVI melanoma, in the test on MDA-MB-231 breast, in the test with MOLT-4 leukemia and in the test on NCI-H522 lung was over 100 µM each time. In addition, the TGI in the test with NCI/ADR-RES ovarian, in the test with SK-MEL-28 melanoma, in the test with SN12C renal and in the test on U251 CNS was over 100 µM in each case.
Turning to `N#CC[N+]1(Cc2ccccn2)CCCC1`, the TGI with HCC-2998 colon, in the test on HOP-92 NSCLC, with LOX IMVI melanoma, with MDA-MB-231 breast, in the test with MOLT-4 leukemia and with NCI-H522 lung was over 100 µM each time. Moreover, the TGI with NCI/ADR-RES ovarian, in the test with SK-MEL-28 melanoma, in the test on SN12C renal and with U251 CNS was over 100 µM in each case.
Take `O=[N+]([O-])c1cccc(Cl)c1Oc1ccc(S(=O)(=O)/N=C(\NO)Nc2ccc(Cl)cc2)cc1`: the TGI in the test with HCC-2998 colon was 24 µM; in the test with HOP-92 NSCLC it was 17.1 µM; in the test on LOX IMVI melanoma, 32.7 µM; in the test with MDA-MB-231 breast, 47.6 µM; with MOLT-4 leukemia, 19.3 µM; with NCI-H522 lung, 20.2 µM. The TGI with NCI/ADR-RES ovarian was determined as 50.7 µM; in the test with SK-MEL-28 melanoma, 34.7 µM; in the test on SN12C renal, 25.7 µM; with U251 CNS, 27.5 µM.
Consider `CCN(CC)CCOC(=O)Cc1cccc2c(=O)cc(-c3ccccc3)oc12`, for which the GI50 with HCC-2998 colon is 34.1 µM; in the test with HOP-92 NSCLC it was 8.02 µM; with LOX IMVI melanoma, 45.3 µM; with MOLT-4 leukemia, 3.37 µM; in the test on NCI-H522 lung, 72.8 µM; with NCI/ADR-RES ovarian, 123 µM. Further, the GI50 in the test with SK-MEL-28 melanoma is 115 µM; with SN12C renal it was 92.8 µM; in the test on U251 CNS, 57.9 µM. The TGI in the test on HCC-2998 colon was 62.5 µM and > 102 µM; in the test on HOP-92 NSCLC, 42.6 µM and 82.5 µM; in the test with LOX IMVI melanoma, 35.1 µM and > 240 µM; with MDA-MB-231 breast, 57.2 µM; with MOLT-4 leukemia, 62.5 µM; in the test with NCI-H522 lung it was 62.5 µM and > 154 µM. Further, the TGI in the test on NCI/ADR-RES ovarian was 62.5 µM and > 283 µM; in the test on SK-MEL-28 melanoma it was 62.5 µM and > 237 µM; in the test with SN12C renal it was 62.5 µM and > 320 µM; with U251 CNS it was 62.5 µM and > 121 µM.
